Patent US20130053372A1, “5-HT RECEPTOR MODULATORS” (Cambridge Enterprise Limited, priority 2010, published 2013)

Assays:
gp5-HT1B [1] = target: T1, gp5-HT1B (Cavia porcellus, UniProt O08892); experiment: Guinea-pig iliac artery functional assay at gp5-HT1B (GPI); assay type: cell-based; parameters: from tissue; host or cells: guinea-pig common iliac artery segments; details: classified as antagonism, agonism or no effect at 10 μM, against 5-nonyloxytryptamine contraction; monohydrochloride salt
T1 sequence (O08892 whole entry): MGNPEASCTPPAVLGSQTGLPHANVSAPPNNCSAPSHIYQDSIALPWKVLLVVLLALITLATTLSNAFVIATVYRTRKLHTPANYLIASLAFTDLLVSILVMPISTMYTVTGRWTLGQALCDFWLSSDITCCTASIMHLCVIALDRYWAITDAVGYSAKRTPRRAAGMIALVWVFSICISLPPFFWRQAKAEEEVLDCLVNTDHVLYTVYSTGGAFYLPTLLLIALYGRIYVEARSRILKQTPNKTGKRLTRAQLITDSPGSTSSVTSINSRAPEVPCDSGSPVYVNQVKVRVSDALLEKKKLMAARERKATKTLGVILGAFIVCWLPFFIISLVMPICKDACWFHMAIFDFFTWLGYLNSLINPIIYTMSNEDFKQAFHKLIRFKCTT
Protocol: Protocol for Determination of Efficacy at gp5-HT1B Receptors in the Guinea-Pig Iliac Artery. (GPI)
Guinea-pig common iliac artery segments (1.0-1.5 mm long) from Dunkin-Harley guinea-pigs (250 g-500 g) were mounted under normalized tension in oxygenated (95% O2; 5% CO2) Krebs-Henseleit solution (NaCl, 118 mM; KCl, 4.7 mM; MgSO4, 1.2 mM; KH2PO4, 1.2 mM; NaHCO3, 25 mM; CaCl2, 2.5 mM; D-glucose, 11 mM; and with indomethacin, 10 μM). After 30 min equilibration, the vessels were precontracted with 5-HT (10 μM) and tested for endothelial integrity by administration of carbachol (10 μM), endothelium-intact vessels (relaxation ≧90% to carbachol) were used for the experiments. Concentration/contraction curves to cumulative addition of 5-nonyloxytryptamine (5-NOT; a 5-HT1B receptor-selective agonist) were constructed in 25 mM KCl Krebs-Henseleit solution (standard Krebs-Henseleit solution in which the KCl concentration was increased to 25 mM by equimolar substitution of NaCl). Vessels were incubated with putative antagonists for 30 min before construction of a concentration/contraction curve for 5-NOT. Contractile responses were expressed as a percentage of the tone induced by Krebs-Henseleit solution containing 90 mM KCl after substitution of an equivalent amount of NaCl with KCl in standard Krebs-Henseleit solution. Data were analysed using non-linear procedures by fitting to a logistic equation: E=(Rmax.[A]^nH)/EC50^nH+[A]^nH), where E is the contraction induced, [A] the concentration of the agonist, Rmax the maximal increase in tension induced, nH the slope function and EC50 the concentration of producing half the maximal contractile tone. Potency was assessed using the Gaddum equation: […] where [A] is the concentration of the putative antagonist and Ka its affinity constant at the 5-HT1B receptor. Compounds are classified as having antagonism, agonism or no effect at a dose concentration of 10 μM.

gp5-HT1B [2] = target: T1, gp5-HT1B; experiment: Guinea-pig frontal cortex membrane binding at gp5-HT1B (GPF); parameters: from tissue; host or cells: guinea-pig frontal cortex membranes; details: monohydrochloride salt; for Kd: Kd from IC50 by Cheng & Prusoff, read-out: (GPF) Guinea-Pig Frontal Cortex membrane binding Affinity at gp5-HT1B Kd; for IC50: [3H]GR125743 displacement
Protocol: Binding Protocol for Determination of Affinity in gp5-HY1B in Guinea-Pig Frontal Cortex Membranes. (GPF)
Guinea-pig frontal cortex membranes were resuspended in a buffer (50 mM Tris-HCl, 4 mM MgCl, 2.5 mM CaCl2, 1 mM EDTA and 120 mM NaCl pH 7.4) to a final concentration of 5-6 μg protein μl^−1. Receptor binding was initiated by the addition of membranes and carried out in a volume of 0.5 ml at 27° C. Non-specific binding was determined by pre-incubation for 15 min with 10 μM SB214461 (N-(3-(2-(dimethylamino)ethoxy)-4-methoxyphenyl)-2′-methyl-4′-(5-methyl-1,2,4-oxadiazol-3-yl)biphenyl-4-carboxamide, Eur. J. Pharmacol. 1997, 331, 169-174). The amount of binding in the presence or absence of a competing ligand was determined by incubation at 27° C. for 60 min with 0.6 nM [N-methyl ^3H] GR125743 (GE Life Science Products). Incubation was terminated by rapid vacuum filtration through GF/B glass fibre filters that had been presoaked in 3% polyethylenimine. Samples were washed 3 times with 1.5 ml ice-cold buffer (50 mM Tris-HCl, pH 7.4) and bound radioactivity determined by liquid scintillation counting after leaving the filters in contact with the scintillation fluid for at least 4 h before counting for 5 min in a liquid scintillation analyzer.
(§1) Specific binding was determined as B—BNS/(BTot—BNS) where B is the binding in the presence of a given competing ligand, BNS is the non-specific binding of radioligand (i.e. the binding in the presence of 10 μM SB214461), and BTot is the amount of binding of radioligand in the absence of a competing ligand. Data for specific binding as a function of the concentration of competing ligand were fitted to a single-site model to obtain a value for IC50. Kd values were derived from IC50 by the Cheng & Prusoff equation (Cheng Y, Prusoff W H (1973). Biochem Pharmacol 22, 3099-3108).

rat r5-HT1B receptors = target: T2, rat r5-HT1B receptors (Rattus norvegicus, UniProt P28564); experiment: Binding affinity at rat r5-HT1B receptors, rat cerebral cortex membrane binding (RBA); details: value in parentheses; monohydrochloride salt
T2 construct: from tissue
T2 sequence (P28564 whole entry): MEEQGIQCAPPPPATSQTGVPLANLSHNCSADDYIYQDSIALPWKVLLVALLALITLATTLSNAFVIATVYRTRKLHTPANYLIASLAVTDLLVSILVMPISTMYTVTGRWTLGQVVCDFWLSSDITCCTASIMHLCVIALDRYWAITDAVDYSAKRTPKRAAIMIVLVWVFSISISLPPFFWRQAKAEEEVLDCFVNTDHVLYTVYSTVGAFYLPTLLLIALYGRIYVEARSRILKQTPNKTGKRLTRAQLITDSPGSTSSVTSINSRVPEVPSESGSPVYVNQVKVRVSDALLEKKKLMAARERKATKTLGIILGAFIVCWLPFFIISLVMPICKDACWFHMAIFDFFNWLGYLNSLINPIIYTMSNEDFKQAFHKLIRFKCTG
Protocol: Binding Protocol for Determination of Affinity at rat r5-HT 1B Receptors (RBA)
This binding affinity protocol was performed according to standard conditions disclosed in Eur. J. Pharmacol. 1985, 118, 1-12.

human h5-HT1B receptor = human h5-HT1B receptor (Homo sapiens, UniProt P28222); experiment: Binding affinity at human h5-HT1B receptors (HBA); details: [3H]GR125743 displacement; Kd from IC50 by Cheng & Prusoff; monohydrochloride salt
Sequence of human h5-HT1B receptor (P28222 whole entry): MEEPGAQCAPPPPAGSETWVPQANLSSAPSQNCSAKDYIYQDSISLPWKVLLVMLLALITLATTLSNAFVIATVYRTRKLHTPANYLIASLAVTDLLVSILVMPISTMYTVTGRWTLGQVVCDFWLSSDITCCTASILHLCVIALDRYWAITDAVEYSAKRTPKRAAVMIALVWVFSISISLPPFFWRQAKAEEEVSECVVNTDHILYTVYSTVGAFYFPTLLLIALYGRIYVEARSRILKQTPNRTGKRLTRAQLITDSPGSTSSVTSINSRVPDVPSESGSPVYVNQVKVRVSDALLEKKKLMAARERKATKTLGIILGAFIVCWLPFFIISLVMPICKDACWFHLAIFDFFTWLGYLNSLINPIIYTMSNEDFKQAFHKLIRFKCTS
Protocol: Binding Protocol for Determination of Binding Affinity at Human […] Receptors (HBA)
Membrane preparations (5 μg in a volume of 100 μl per sample) expressing the human h5-HT1B receptor were preincubated at 27° C. in buffer (50 mM Tris HCl, 10 mM MgCl2 and 1 mM EDTA; pH 7.4) with or without 10 μM SB214461 (N-(3-(2-(dimethylamino)ethoxy)-4-methoxyphenyl)-2′-methyl-4′-(5-methyl-1,2,4-oxadiazol-3-yl)biphenyl-4-carboxamide, Eur. J. Pharmacol. 1997, 331, 169-174) (to determine non-specific binding). Receptor binding was determined by incubation at 27° C. with 3.5 nM [N-methyl-^3H] GR125743 (GE Life Science Products) for 90 min. The incubations were terminated by rapid vacuum filtration through GF/B glass fibre filters that had been presoaked in 3% polyethylenimine. Samples were washed 3 times with 1.5 ml ice-cold buffer (50 mM Tris-HCl, pH 7.4) and bound radioactivity determined by liquid scintillation counting after leaving the filters in contact with the scintillation fluid (4 ml Quicksafe ‘A’, Zinsser, Maidenhead, UK) for at least 4 h before counting for 5 min in a liquid scintillation analyzer.
as §1, with “[…].” for “IC50.”

Compound	(GPI) Guinea-Pig Iliac Artery functional assay at gp5-HT1B (gp5-HT1B [1])	Kd (gp5-HT1B [2])	IC50 (gp5-HT1B [2])	IC50 (rat r5-HT1B receptors)	Kd (human h5-HT1B receptor)
COc1ccc(N2CCCC2=O)cc1N1CCC(N(C)C)CC1 [13e, 1-(3-(4-(dimethylamino)piperidin-1-yl)-4-methoxyphenyl)pyrrolidin-2-one, reference compound]	Antagonist				
COc1ccc(N2CCCC2=O)cc1N(C)CCN(C)C [13f, 1-(3-((2-(dimethylamino)ethyl)(methyl)amino)-4-methoxyphenyl)pyrrolidin-2-one, reference compound]	No effect				
COc1ccc(N2CCCC2=O)cc1N1CCN(C)CC1 [Example 5a, 1-(4-methoxy-3-(4-methylpiperazin-1-yl)phenyl)pyrrolidin-2-one]	Antagonist	15000 nM	30000 nM		
COc1ccc(N2CCCC2=O)cc1N1C[C@@H](C)N[C@@H](C)C1 [Example 13a, 1-(3-((3R,5S)-3,5-dimethylpiperazin-1-yl)-4-methoxyphenyl)pyrrolidin-2-one]	Antagonist				
COc1ccc(N2CCOC2=O)cc1N1CCN(C)CC1 [Example 13b, 3-(4-methoxy-3-(4-methylpiperazin-1-yl)phenyl)oxazolidin-2-one]	Antagonist				
COc1ccc(N2CCCC2=O)cc1N1CCCN(C)CC1 [Example 13c, 1-(4-methoxy-3-(4-methyl-1,4-diazepan-1-yl)phenyl)pyrrolidin-2-one]	Antagonist				
COc1ccc(N2CCOC2=O)cc1N1C[C@@H](C)N[C@@H](C)C1 [Example 13d, 3-(3-((3R,5S)-3,5-dimethylpiperazin-1-yl)-4-methoxyphenyl)oxazolidin-2-one]	No effect				
COc1ccc(N2CCCS2(=O)=O)cc1N1CCCN(C)CC1 [Example 18b, 2-(4-methoxy-3-(4-methyl-1,4-diazepan-1-yl)phenyl)-1,1-dioxoisothiazolidine]				12 µM	
C[C@@H]1CN(c2cc(N3CCCC3=O)cc3c2OCC3)C[C@H](C)N1 [Example 26b, 1-(7-((3S,5R)-3,5-dimethylpiperazin-1-yl)-2,3-dihydrobenzofuran-5-yl)pyrrolidin-2-one]				9.6 µM	
CN1CCN(c2cc(N3CCCC3=O)ccc2F)CC1 [Example 30, 1-(4-fluoro-3-(4-methylpiperazin-1-yl)phenyl)pyrollidin-2-one]	Antagonist	2000 nM	4000 nM		
CN1CCN(c2cc(N3CCCC3=O)cc3ccoc23)CC1 [Example 45, 1-(7-(4-methylpiperazin-1-yl)benzofuran-5-yl)pyrrolidin-2-one]	Antagonist	200 nM	400 nM		4.5 µM
CN1CCN(c2cc(N3CCOC3=O)cc3ccoc23)CC1 [Example 47a, 3-(7-(4-methylpiperazin-1-yl)benzofuran-5-yl)oxazolidin-2-one]	Antagonist	225 nM	450 nM		13.5 µM
COC(=O)N1CCN(c2cc(N3CCN(C)CC3)c3occc3c2)S1(=O)=O [Example 49a, methyl 5-(7-(4-methylpiperazin-1-yl)benzofuran-5-yl)-1,1-dioxo-1,2,5-thiadiazolidine-2-carboxylate]	Antagonist	230 nM	460 nM		1.8 µM
CN1CCN(c2cc(N3CCNS3(=O)=O)cc3ccoc23)CC1 [Example 50a, 2-(7-(4-methylpiperazin-1-yl)benzofuran-5-yl)-1,1-dioxo-1,2,5-thiadiazolidine]	Antagonist	700 nM	1400 nM	0.86 µM	
